In patent US20030039657A1, “Inducible vaccines” (priority 1999, published 2003):

System: humoral immune response against hAAT
Assay: Anti-hAAT antibody (humoral immune response) in mouse serum by ELISA after gene-gun DNA inoculation
Assay type: in vivo, balb/c mice
Procedure: Five to 7-week-old female Balb/c mice were given 4 μg reporter (P4U-hAAT) and 200 ng effector (GS1158) of the mifepristone-inducible plasmid DNA divided into four shots. Mifepristone was given i.p. 20 weeks after DNA administration (Day 140, 142, 144). Blood samples were take from the tail vein at various time points and anti-hAAT levels were determined by ELISA. Values are mean +/−SD for three mice per group. The control is with no drug treatment.
Specific-pathogen-free (5-7 weeks old), female balb/c mice were purchased from Jackson Labs (Bar Harbor, Me.). A biolistic gene gun (Rumsey-Loomis, Ithaca, N.Y.) was used to deliver plasmid DNA into the skin of mouse ears (Williams et al., 1991; Johnston and Tang 1993). Briefly, DNA was precipitated onto gold micro-projectiles (3±1 μm diameter, Metz Metallurgical Corp., South Plainfield, N.J.) at 4 μg DNA/mg gold. Each mouse received four shots of gold-DNA and each shots contains 1 μg reporter (P4U-AAT) and 50 ng effector (GS-1158) plasmid DNA. The drug (RU486, Sigma) was given intraperitoneally on days 1, 3, 5, and also on day 14, 16, in a dose of 500 μg/kg/day in 100 μl sesame oil, after DNA injection. […] The blood samples of the mice was collected from the tail vein at the time point as indicated. The anti-hAAT antibodies in the serum was measured using enzyme-linked immuno enzyme-linked immunosorbent assay (ELISA, Tang et al. 1992). Briefly, ninety six-well plats were coated with 1 μg hAAT per well in 50 μl phosphate buffered saline (PBS) (for overnight at 4° C. and 100 μl blocking buffer (3% bovine serum albumin (3SA) in PBS with 0.05% tween 20) was added and incubated for 2 hrs at room temperature. After 3 times washing with PBS plus 0.05% tween 20, the serum samples (diluted 1:200 in blocking buffer) were added into the well and incubated overnight at 4° C., then further incubated with horseradish peroxidase-conjugated goat anti-mouse immunoglobulin G and M (Jackson ImmunResearch, West Grove, Pa.) for 1 h at room temperature. The plate was washed and developed with TMB buffer solution (Calbiochem). The optical density was read at 450 nm and concentration of the antibodies was determined according to the standard curve.
The mice were given RU486 intraperitoneally in week 7 (Day 50, 52, 54) after the DNA injection in the drug and the Van Gogh (removed the site of the DNA inoculation, ear) groups. The ear cut was performed before administering the drug. The value shown is the mean with standard deviation for experiments on three mice.

CC#C[C@]1(O)CC[C@H]2[C@@H]3CCC4=CC(=O)CCC4=C3[C@@H](c3ccc(N(C)C)cc3)C[C@@]21C [RU486, mifepristone]
anti-hAAT antibody levels, time of peak (FIG. 3, 4 shots of 1 μg P4U-AAT + 50 ng GS-1158, RU486 500 μg/kg/day ip days 1, 3, 5, 14, 16): reached peak levels at the third week
anti-hAAT immune response, inducibility by ligand (FIG. 4, RU486 on week 3 (day 21, 23, 25) after DNA, 1 μg reporter and 50 ng effector per shot): inducible by simply giving the ligand three weeks after the primary injection of the DNA
anti-hAAT immune response, inducibility by ligand (FIG. 6, RU486 ip in week 7 (Day 50, 52, 54) after DNA injection): inducible 7 weeks after the DNA injection
anti-hAAT immune response after removal of the DNA inoculation site (Van Gogh group) (FIG. 6, ear cut before RU486 in week 7): the original vaccine site was not required for induction
